Measurements as given in publication PMC11019550, “Potent Inhibition of E. coli DXP Synthase by a gem-Diaryl Bisubstrate Analog” (ACS Infectious Diseases, 2024).

Columns and labels:
EcDXPS = target: T1, EcDXPS (Escherichia coli, UniProt P77488); assay: DXPS-IspC coupled assay, apparent Ki on wildtype EcDXPS; assay type: biochemical; settings: for Ki: read-out: Ki^app; for fold change in Ki^app relative to 1: relative to compound 1; for fold increase in Ki^app relative to 8: relative to compound 8
T1 construct: made in house
Procedure: To determine inhibitor potency, we used the DXPS-DXP reductoisomerae (DXPS-IspC) coupled assay to measure the activity of recombinant purified EcDXPS[24],[25],[31],[44],[50] in the presence of inhibitors. Reactions were initiated by the addition of substrates following a short preincubation of the inhibitor with enzymes, and initial velocities were determined by monitoring reduced nicotinamide adenine dinucleotide phosphate (NADPH) absorbance at 340 nm. Apparent Ki values were determined by fitting initial velocity data to the Morrison equation,[64],[65] which accounts for the tight-binding nature (Ki^app/[E]total < 10)[66] of inhibitors included in this study and allows for rigorous comparison of inhibitor potencies. […] Inhibitor activities were rationalized based on the predictions made from molecular docking of the corresponding PLThDP adducts into the DXPS active site.
All compounds in this study were evaluated as DXPS inhibitors using the DXPS-IspC coupled assay as previously reported.[24] […] The DXPS reaction was initiated by the addition of substrates (50 μM pyruvate and 500 μM D-GAP). The initial rate of depletion of NADPH was monitored at 340 nm and was used to calculate the initial rate of DXP formation in the presence or absence of inhibitor. Initial rates of DXP formation were plotted as a function of [inhibitor], and Ki^app was determined by fitting the data to the Morrison equation (eq 1)[64],[65] in GraphPad Prism. This approach was deemed appropriate as the concentration of free inhibitor cannot be assumed to remain constant for most of these analogs in which Ki^app values approach the concentration of DXPS.[88],[89] Error is reported as standard deviation from three replicates. Active enzyme concentration ([E]T) was determined following Copeland’s method using 8 (Figure S2B).[88]
The coupled assay was initiated by adding 20 μL of a 10× substrate stock to the preincubated E + I mixture to give a final volume of 200 μL. The final concentration of D-GAP was held constant at 500 μM, and [pyruvate] was added to final concentrations between 0 and 250 μM. The initial rate of NADPH depletion in the IspC-coupled reaction was monitored at 340 nm and was used to calculate the initial rate of DXP formation in the presence or absence of inhibitor. Initial rates were plotted as a function of [pyruvate]. […] Model discrimination analysis employing the Akaike information criterion was performed as well as Lineweaver–Burk analysis to determine the mixed model as the best fit. In all cases, error bars represent the standard deviation from three replicates.

WT EcDXPS [1] = target: T2, WT EcDXPS (Escherichia coli, UniProt P77488); assay: Circular dichroism titration (PLThDP formation, apparent KD) on WT EcDXPS; assay type: binding
T2 construct: made in house
Excerpt: The X-ray structure obtained from cocrystallization of DrDXPS with 1 (Figure 2) indicates the formation of the PLThDP adduct by reaction of the acetylphosphonate mimic of pyruvate with the C2 carbanion of ThDP. We reasoned that 8 should also engage the pyruvate binding site and react with ThDP to form a PLThDP adduct. Circular dichroism (CD) is a powerful tool that can be used to detect LThDP and LThDP-like adducts on thiamin-dependent enzymes,[56],[67]−[75] including DXPS.[31],[36],[43],[44],[49]−[52],[76] DXPS bound to ThDP (E-ThDP) is characterized by a CD λmin at 320 nm, indicative of the 4′-aminopyrimidine (AP) tautomer of ThDP (Figure 8A). Upon addition of pyruvate to E-ThDP, a new positive signal emerges at 313 nm, indicating the formation of LThDP in its 1′,4′-iminopyrimidine (IP) form. Similarly, upon addition of AP-based inhibitors to E-ThDP, the E-PLThDP adduct is formed, characterized by an increasing, broad CD signal.[69],[77],[78] Determination of apparent KD of PLThDP by plotting the CD signal corresponding to PLThDP versus [MAP] has been used as a proxy for PLThDP affinity.[77],[78] To confirm that 8 reacts with ThDP to form PLThDP in the DXPS active site, the change in CD signal upon addition of 8 (0.25–30 μM) to EcDXPS (30 μM) was measured. […] Plotting the CD signal at 294 nm versus affords a curve that approaches the limiting asymptotes defined by infinitely tight binding (Figure 8C),[79],[80] which is expected for this nanomolar inhibitor under the conditions of high [DXPS] required for this method. Since in this case [DXPS] ≫ KD^app, an accurate determination of KD^app is not possible, and data were fit to a quadratic equation to give an estimated upper limit for the value of KD^app (≤0.04 ± 0.01 μM). Addition of 10 to DXPS also results in an increased, broad CD signal (Figure S7A), indicating PLThDP formation. […]
CD titrations of 8 and 10 onto WT, R99A, and R478A EcDXPS variants were conducted at 25 °C under aerobic conditions in 1.5 mL solutions containing 30 μM EcDXPS in 50 mM HEPES pH 8, 100 mM NaCl, 1 mM MgCl2, and 0.2 mM ThDP. […] The CD signals at 294 nm determined from the difference spectra obtained by subtracting the signal of E-ThDP at 294 nm were plotted as a function of [inhibitor] and fit to (1) the quadratic equation described in eq 2 (8 on WT DXPS), where E is the concentration of DXPS taking into account stoichiometric binding and CDmax is the maximal CD signal, or (2) a one-site specific binding curve (all other experiments) using GraphPad Prism Version 9 to calculate an apparent KD. Experiments were conducted in triplicate and the standard error was calculated. […]
At the conclusion of the titration described above, the CD signal at 313 nm (previously characterized for LThDP) was recorded. […]

R99A EcDXPS = target: T3, R99A EcDXPS (Escherichia coli, UniProt P77488, R99A); assay: Circular dichroism titration (PLThDP formation, apparent KD) on R99A EcDXPS; assay type: binding
T3 construct: made in house
Procedure: (§1) CD titrations of 8 and 10 onto WT, R99A, and R478A EcDXPS variants were conducted at 25 °C under aerobic conditions in 1.5 mL solutions containing 30 μM EcDXPS in 50 mM HEPES pH 8, 100 mM NaCl, 1 mM MgCl2, and 0.2 mM ThDP. Scans were obtained from 280 to 400 nm with a 0.5 s averaging time and 1 nm step following a titration of inhibitor (8: 0.25–30 μM on WT, 0.5–30 μM on R99A and R478A; 10 2.5–30 μM on WT, R99A, and R478A), with a 5 min preincubation of inhibitor with DXPS prior to scanning. […] The CD signals at 294 nm determined from the difference spectra obtained by subtracting the signal of E-ThDP at 294 nm were plotted as a function of [inhibitor] and fit to (1) the quadratic equation described in eq 2 (8 on WT DXPS), where E is the concentration of DXPS taking into account stoichiometric binding and CDmax is the maximal CD signal, or (2) a one-site specific binding curve (all other experiments) using GraphPad Prism Version 9 to calculate an apparent KD. Experiments were conducted in triplicate and the standard error was calculated. [drawing 2] 2
(§2) At the conclusion of the titration described above, the CD signal at 313 nm (previously characterized for LThDP) was recorded. Pyruvate (1 mM) was then added to the mixture, and a CD scan of the resulting solution was conducted as described above, to detect shifts in the CD spectrum that may correlate to LThDP formation. Experiments were conducted in triplicate.

R478A EcDXPS = target: T4, R478A EcDXPS (Escherichia coli, UniProt P77488, R478A); assay: Circular dichroism titration (PLThDP formation, apparent KD) on R478A EcDXPS; assay type: binding
T4 construct: made in house
Procedure: as §1, §2

WT EcDXPS [2] = target: T2, WT EcDXPS; assay: Time-dependent inhibition, reaction progress curves on WT EcDXPS; assay type: biochemical; settings: 8 at 400 or 800 nM, 10 at 1 or 100 μM
Procedure: To determine if 8 is also a slow-onset inhibitor of DXPS, reaction progress was monitored upon simultaneous addition of substrates (pyruvate and D-GAP) in the presence or absence of inhibitor. In the absence of inhibitor, the reaction progress curve is linear. […] To assess the importance of the carboxyl group of 8, we evaluated descarboxy analog 10 in the same manner.
EcDXPS (100 nM) and IspC (2 μM) were preincubated in enzyme reaction buffer (100 mM HEPES pH 8, 2 mM MgCl2, 5 mM NaCl, 1 mM ThDP, and 200 μM NADPH) with 250 μM D-GAP for 10 min at 25 °C. The reaction was initiated by the addition of pyruvate (1 mM) and inhibitor (400 nM and 800 nM 8; 1 μM and 100 μM 10). The reaction mixture was incubated at 25 °C, and the absorbance of NADPH at 340 nm was monitored. The change in the absorbance of NADPH over time was used to calculate [DXP] (μM) produced over time. Experiments were performed in triplicate.

[3] = tested on: porcine pyruvate dehydrogenase (PDH) E1 subunit; assay: Inhibition of porcine pyruvate dehydrogenase (PDH); assay type: biochemical; settings: DXPS over porcine PDH
Excerpt: As noted, DXPS has a large active site and follows a mechanism requiring ternary complex formation, distinct from other ThDP-dependent pyruvate decarboxylases. We hypothesized that the sterically demanding scaffold of 8, predicted to engage both substrate binding sites, should display selectivity for DXPS. In a preliminary assessment, we tested 8 as an inhibitor of porcine pyruvate dehydrogenase (PDH) E1 subunit. […] For comparison, the selectivity ratio for 1 was estimated to be >15,000-fold for DXPS over porcine PDH.
Figure S5. Evaluation of inhibitory activity of 8 against mammalian porcine pyruvate dehydrogenase (PDH). Porcine PDH (0.01 U/mL) and inhibitor (8 or MAP positive control) were preincubated for 10 minutes at 25 °C in enzyme buffer (2 mM MgCl2, 5 mM L-cysteine, 1 mM ThDP, 300 μM TCEP, 100 mM HEPES pH 8, 2.5 mM NAD +, and 100 μM coenzyme A). The reaction was initiated by addition of pyruvate (60 μM). The change in absorbance at 340 nm over time was measured and used to calculate the initial rate of NADH formation. The % activity of PDH in the presence of 8 or MAP was plotted using GraphPad Prism version 9. There is 21% inhibition of PDH activity observed in the presence of compound 8 at a concentration of 1 mM.
Experiments were performed in triplicate. Error bars represent standard error.
Figure S6. Replicate progress curves for DXP formation in the presence or absence of inhibitors 8 or 10 with EcDXPS. A) Progress curves for formation of DXP in the presence of 8 display time-dependence of inhibition. B) Progress curves for formation of DXP in the presence of descarboxyl […]

Row | SMILES | Ki (EcDXPS) [nM] | fold change in Ki^app relative to 1 (EcDXPS) [fold] | also measured
1 | CC(=O)P(=O)(O)OCCc1cn([C@H](COCc2ccccc2)C(=O)O)nn1 [Compound 4] | 1420 ± 50 | ~5 | –
2 | CC(=O)P(=O)(O)OCCc1cn([C@H](CO)Cc2ccccc2)nn1 [Compound 19] | 13400 ± 1500 | – | –
3 | CC(=O)P(=O)(O)OCCc1cn([C@@H](C(=O)O)C(c2ccccc2)c2ccccc2)nn1 [Compound 6] | 570 ± 120 | – | –
4 | CC(=O)P(=O)(O)OCCc1cn([C@@H](CO)Cc2ccccc2)nn1 [Compound 18] | 13300 ± 1400 | – | –
5 | COC(=O)C(Cc1ccccc1)(Cc1ccccc1)n1cc(CCOP(=O)(O)C(C)=O)nn1 [Compound 11] | 2900 ± 500 | – | fold increase in Ki^app relative to 8 (EcDXPS): 1000 fold
6 | CC(=O)P(=O)(O)OCCc1cn(C(c2ccccc2)c2ccccc2)nn1.CCN(CC)CC [Compound 20] | 5420 ± 40 | ~21 | –
7 | CC(=O)P(=O)(O)OCCc1cn([C@H](Cc2ccc(-c3ccccc3)cc2)C(=O)O)nn1 [Compound 2] | 8000 ± 1000 | 30 | –
8 | CC(=O)P(=O)(O)OCCc1cn([C@H](Cc2ccc(OCc3ccccc3)cc2)C(=O)O)nn1 [Compound 3] | 4900 ± 600 | 19 | –
9 | CC(=O)P(=O)(O)OCCc1cn([C@H](Cc2ccccc2)C(c2ccccc2)c2ccccc2)nn1 [Compound 21] | – | – | inhibition of EcDXPS (EcDXPS; up to a concentration of 50 μM): Minimal inhibition
10 | CC(=O)P(=O)(O)OCCc1cn([C@H](CC2CCCCC2)C(=O)O)nn1 [Compound 14] | 260 ± 60 | – | –
11 | CC(=O)P(=O)(O)OCCc1cn([C@H](C(=O)O)C23CC4CC(CC(C4)C2)C3)nn1 [Compound 17] | 390 ± 60 | – | –
12 | CC(=O)P(=O)(O)OCCc1cn(C(Cc2ccccc2)Cc2ccccc2)nn1 [Compound 10] | 11000 ± 1000 | – | fold increase in Ki^app relative to 8 (EcDXPS): ~3800 fold; Kd (WT EcDXPS [1]): 9000 ± 1000 nM; change in PLThDP CD signal upon addition of 1 mM pyruvate (WT EcDXPS [1]; WT EcDXPS 30 μM, inhibitor 30 μM): CD signal shift and an increase in amplitude; Kd (R99A EcDXPS): 14500 ± 700 nM; Kd (R478A EcDXPS): 6000 ± 1000 nM; time dependence of inhibition (progress curve for DXP formation) (WT EcDXPS [2]): linear
13 | CC(=O)P(=O)(O)OCCc1cn(C2(C(=O)O)CCCC2)nn1 [Compound 13] | 530 ± 110 | – | –
14 | CC(=O)P(=O)(O)OCCc1cn([C@@H](Cc2ccccc2)C(c2ccccc2)c2ccccc2)nn1 [Compound 22] | 96000 ± 10000 | 370 | α (mixed inhibition model) (EcDXPS; mixed inhibition model): > 1; inhibition mode (EcDXPS; model discrimination by Akaike's information criterion, varied pyruvate): mixed inhibition mode
15 | CC(=O)P(=O)(O)OCCc1cn(C2(C(=O)O)Cc3ccccc3C2)nn1 [Compound 12] | 290 ± 40 | – | –
16 | CC(=O)P(=O)(O)OCCc1cn([C@@H](C(=O)O)C2CCCCC2)nn1 [Compound 15] | 1600 ± 200 | 6 | –
17 | CC(=O)P(=O)(O)OCCc1cn([C@H](Cc2ccccc2)C(=O)O)nn1 [Compound 1, D-PheTrAP] | 260 ± 30 | – | estimated selectivity ratio for DXPS over porcine PDH [3]: > 15,000 fold
18 | CC(=O)P(=O)(O)OCCc1cn([C@H](Cc2cccc3ccccc23)C(=O)O)nn1 [Compound 7] | 600 ± 60 | – | –
19 | CC(=O)P(=O)(O)OCCc1cn([C@@H](C(=O)O)C23CC4CC(CC(C4)C2)C3)nn1 [Compound 16] | 360 ± 10 | – | –
20 | CC(=O)P(=O)(O)OCCc1cn([C@@H](C(=O)O)c2ccccc2)nn1 [Compound 5] | 2100 ± 200 | 8 | –
